For one compound, inhibition, melting point and preventive fungicidal activity results are on record in patent US8357634B2, “N-alkoxycarboxamides and their use as microbiocides” (Syngenta Crop Protection LLC, priority 2009, dated 2013).

In data set [1] the test system is Botrvtis cinerea. The data set is described as follows: Example B-1: Action against Botrytis cinerea, fungal growth assay. In kind it is cell-based. The settings on record: 0.002% active ingredient, PDB broth, 24° C., photometric after 3-4 days. The method, then:
(§1) Action against Botrvtis cinerea—fungal growth assay Conidia of the fungus from cryogenic storage was directly mixed into nutrient broth (PDB potato dextrose broth). After placing a (DMSO) solution of the test compounds (0.002% active ingredient) into a microtiter plate (96-well format) the nutrient broth containing the fungal spores was added. The test plates were incubated at 24° C. and the inhibition of growth was measured photometrically after 3-4 days. The activity of a compound was expressed as fungal growth inhibition (0=no growth inhibition, ratings of 80% to 99% mean good to very good inhibition, 100%=complete inhibition).

In data set [2] the test system is Mycosphaerella arachidis (Cercospora arachidicola). As to the kind of experiment: Example B-2: Action against Mycosphaerella arachidis, fungal growth assay. In kind it is cell-based. The settings on record: 0.002% active ingredient, PDB broth, 24° C., photometric after 6-7 days. The method, then:
as §1, with “Action Against Mycosphaerella arachidis (Early Leaf Spot of Groundnut; Cercospora arachidicola [fanamorph])—Fungal Growth Assay” for “Action against Botrvtis cinerea—fungal growth assay”, “storage were” for “storage was”, “after 6-7” for “after 3-4”

Data set [3] concerns Blumeria graminis f. sp. tritici (Erysiphe graminis f. sp. tritici). The data set is described as follows: Example B-9: Blumeria graminis f. sp. tritici / wheat / leaf disc preventive (comparative). The settings on record: 4 dpi. In kind it is in vivo. The method, then: Blumeria graminis f. sp. tritici (Erysiphe graminis f. sp. tritici)/Wheat/Leaf Disc Preventive (Powdery mildew on wheat) Wheat leaf segments were placed on agar in a multiwell plate (24-well format) and sprayed with test solutions. After drying, the leaf disks were inoculated with a spore suspension of the fungus. After appropriate incubation the activity of a compound was assessed 4 dpi (days after inoculation) as preventive fungicidal activity.

Data set [4] relates to Mycosphaerella praminicola (Seotoria tritici). As to the kind of experiment: Example B-16: Mycosphaerella graminicola (Septoria tritici) / liquid culture (comparative). In kind it is cell-based. The settings on record: 96 h, 24° C., photometric after 4 days, read-out: inhibition of growth. The method, then:
Mycosphaerella praminicola (Seotoria tritici)/Liquid Culture (Septoria Blotch) Conidia of the fungus from cryogenic storage were directly mixed into nutrient broth (PDB potato dextrose broth). After placing a (DMSO) solution of the test compounds into a microtiter plate (96-well format) the nutrient broth containing the fungal spores was added. The test plates were incubated at 24° C. and the inhibition of growth is measured photometrically after 4 days.

By inhibition is commonly meant how much of the control response was suppressed. By melting point is commonly meant the temperature of the solid-liquid transition.

On to `CON(C(=O)c1cn(C)nc1C(F)F)C(C)c1ccc(Cl)cc1Cl` (stereo not drawn) [Compound 1.023], for which the melting point was 135 to 141 °C. The inhibition at 0.002 % strength in data set [1] is ≥ 80%. In data set [2], the inhibition at 0.002 % strength was ≥ 80%. Moreover, the preventive fungicidal activity in data set [3] (20 ppm) is on record as 90. Further, the preventive fungicidal activity in data set [3] (60 ppm) turned out to be 100. The compound further registered a preventive fungicidal activity in data set [3] (200 ppm) of 100. In addition, the inhibition at 6 ppm in data set [4] (6 ppm) stood at 100%. Further, the inhibition at 20 ppm in data set [4] (20 ppm) came out at 100%. For the same compound, the inhibition at 60 ppm in data set [4] (60 ppm) was 100%.
